The text below walks through data of patent publication US12234224B2, “Pyrimidine and pyridine amine compounds and usage thereof in disease treatment” (Epigen Biosciences, Inc., priority 2021, dated 2025).

Usually IC50 stands for the point on the concentration scale where inhibition reaches its midpoint.

Bounds are passed on as bounds.

The test deals with T1, Recombinant human p70S6K kinase (Homo sapiens, UniProt P23443).
T1 construct: purchased ThermoFisher Scientific PV3815
T1 sequence (P23443 whole entry): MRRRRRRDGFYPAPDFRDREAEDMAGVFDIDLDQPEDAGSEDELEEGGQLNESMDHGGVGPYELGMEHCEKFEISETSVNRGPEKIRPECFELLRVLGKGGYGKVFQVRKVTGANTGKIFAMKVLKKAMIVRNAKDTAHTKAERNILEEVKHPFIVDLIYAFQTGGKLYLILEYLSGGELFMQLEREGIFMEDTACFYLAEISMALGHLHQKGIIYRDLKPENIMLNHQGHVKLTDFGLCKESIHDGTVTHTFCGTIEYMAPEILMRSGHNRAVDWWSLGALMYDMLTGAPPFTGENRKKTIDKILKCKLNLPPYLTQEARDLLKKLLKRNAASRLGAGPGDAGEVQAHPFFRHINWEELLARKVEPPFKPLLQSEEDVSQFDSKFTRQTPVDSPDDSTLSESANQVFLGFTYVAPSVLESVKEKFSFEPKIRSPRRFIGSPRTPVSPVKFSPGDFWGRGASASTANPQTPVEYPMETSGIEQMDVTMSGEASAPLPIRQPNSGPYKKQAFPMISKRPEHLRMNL
Put plainly: S6K Enzymatic Inhibition Assay (HotSpot kinase assay; called S6K binding assay in Table 2). Format: biochemical. Particulars: IC50 class. As for the experimental part:
Enzymatic activity was determined using a commercial HotSpot kinase assay. Recombinant human p70S6K kinase was purchased from ThermoFisher Scientific (cat #PV3815). The substrate S6K/RSK2 peptide 2 was synthesized at Genscript [Piscataway, NJ]. In brief, the substrate was prepared in the reaction buffer [20 mM Hepes (pH 7.5), 10 mM MgCl2, 1 mM EGTA, 0.02% Brij35, 0.02 mg/mL BSA, 0.1 mM Na3VO4, 2 mM DTT, 1% DMSO]. Testing compounds were dissolved in 100% DMSO and a serial dilution was conducted in DMSO. The kinase at final concentration of 3 nM was added into the substrate solution and gently mixed. Test compounds were delivered at the appropriate concentrations into the kinase reaction mixture by Echo550, and incubated for 20 minutes at room temperature. ^33P-ATP (Specific activity 10 μCi/μL) was added into the reaction mixture to initiate the reaction. Assay plates were incubated for 2 hours at room temperature. The radioactivity was detected by filter-binding method. Kinase activity data is expressed as the percent remaining kinase activity in test samples compared to vehicle (DMSO) reactions. IC50 curves were plotted and IC50 values were calculated using the GraphPad Prism 4 program based on a sigmoidal dose-response equation.
For the molecule `Nc1ncnc(-c2cnn(Cc3ccc(OC(F)(F)F)cc3)c2)c1-c1ccc(Cl)cc1` [Example 20, 5-(p-Chlorophenyl)-6-{1-[(p-trifluoromethoxyphenyl)methyl]-1H-pyrazol-4-yl}-4-pyrimidinylamine], the IC50 is below 50 nM.
In the case of `Nc1ncnc(-c2cnn(Cc3ccc(C(F)(F)F)cc3)c2)c1-c1ccc(Cl)cc1` [Example 4, 5-(p-Chlorophenyl)-6-(1-{[p-(trifluoromethyl)phenyl]methyl}-1H-pyrazol-4-yl)-4-pyrimidinylamine], the IC50 is below 50 nM.
For `COc1cc(-c2c(N)ncnc2-c2cnn(Cc3ccc(C(F)(F)F)cc3)c2)ccc1Cl` [Example 29, 5-(4-Chloro-3-methoxyphenyl)-6-(1-{[p-(trifluoromethyl)phenyl]methyl}-1H-pyrazol-4-yl)-4-pyrimidinylamine] the value was 500 to 10000 nM; for `Cc1ccccc1-n1cc(-c2ncnc(N)c2-c2ccc(Cl)cc2)cn1` [Example 11, 5-(p-Chlorophenyl)-6-[1-(o-tolyl)-1H-pyrazol-4-yl]-4-pyrimidinylamine], 50 to 500 nM; for `Nc1ncnc(-c2cnn(Cc3ccc(C(F)(F)F)cc3)c2)c1-c1ccc(Cl)c(F)c1` [Example 27, 5-(4-Chloro-3-fluorophenyl)-6-(1-{[p-(trifluoromethyl)phenyl]methyl}-1H-pyrazol-4-yl)-4-pyrimidinylamine], below 50 nM.
For `CS(=O)(=O)c1ccc(-c2c(N)ncnc2-c2cnn(Cc3ccc(C(F)(F)F)cc3)c2)cc1` [Example 26, 5-[p-(Methylsulfonyl)phenyl]-6-(1-{[p-(trifluoromethyl)phenyl]methyl}-1H-pyrazol-4-yl)-4-pyrimidinylamine] the value was 500 to 10000 nM; for `Nc1ncnc(-n2cc(Cc3ccccc3)cn2)c1-c1ccc(Cl)cc1` [Example 23, 6-(4-Benzyl-1H-pyrazol-1-yl)-5-(p-chlorophenyl)-4-pyrimidinylamine], 50 to 500 nM; for `Nc1ncnc(-c2cnn(Cc3ccc(Cl)cc3)c2)c1-c1ccc(Cl)cc1` [Example 16, 5-(p-Chlorophenyl)-6-{1-[(p-chlorophenyl)methyl]-1H-pyrazol-4-yl}-4-pyrimidinylamine], below 50 nM.
The value for `Nc1ncnc(-c2cnn(Cc3cccc(F)c3)c2)c1-c1ccc(Cl)cc1` [Example 15, 5-(p-Chlorophenyl)-6-{1-[(m-fluorophenyl)methyl]-1H-pyrazol-4-yl}-4-pyrimidinylamine] was below 50 nM; that for `Nc1cc(-c2cnn(Cc3ccc(C(F)(F)F)cc3)c2)c(Cl)cn1` [Example 37, 5-Chloro-4-(1-{[p-(trifluoromethyl)phenyl]methyl}-1H-pyrazol-4-yl)-2-pyridylamine] was 500 to 10000 nM; that for `Nc1ncnc(-c2cnn(Cc3ccccc3)c2)c1-c1ccc(Cl)cc1` [Example 1, 6-(1-Benzyl-1H-pyrazol-4-yl)-5-(p-chlorophenyl)-4-pyrimidinylamine] was below 50 nM.
Regarding `Nc1ncnc(-c2cnn(-c3cccc(C(F)(F)F)c3)c2)c1-c1ccc(Cl)cc1` [Example 13, 5-(p-Chlorophenyl)-6-{1-[m-(trifluoromethyl)phenyl]-1H-pyrazol-4-yl}-4-pyrimidinylamine], the IC50 is 500 to 10000 nM.
The value for `Nc1ncnc(-c2cnn(-c3ccccc3)c2)c1-c1ccc(Cl)cc1` [Example 10, 5-(p-Chlorophenyl)-6-(1-phenyl-1H-pyrazol-4-yl)-4-pyrimidinylamine] was 50 to 500 nM.
Turning to `Nc1ncnc(-c2cnn(-c3cccc(Cl)c3)c2)c1-c1ccc(Cl)cc1` [Example 12, 5-(p-Chlorophenyl)-6-[1-(m-chlorophenyl)-1H-pyrazol-4-yl]-4-pyrimidinylamine], the IC50 is 500 to 10000 nM.
For `Nc1ncnc(-n2cc(C(=O)c3ccccc3)cn2)c1-c1ccc(Cl)cc1` [Example 22, {1-[6-Amino-5-(p-chlorophenyl)-4-pyrimidinyl]-1H-pyrazol-4-yl}phenylmethanone] the value was 500 to 10000 nM; for `Nc1ncnc(-c2cnn(Cc3ccc(F)cc3F)c2)c1-c1ccc(Cl)cc1` [Example 19, 5-(p-Chlorophenyl)-6-{1-[(2,4-difluorophenyl)methyl]-1H-pyrazol-4-yl}-4-pyrimidinylamine], below 50 nM; for `Cn1cc(-c2ncnc(N)c2-c2ccc(Cl)cc2)cn1` [Example 2, 5-(p-Chlorophenyl)-6-(1-methyl-1H-pyrazol-4-yl)-4-pyrimidinylamine], 50 to 500 nM.
The value for `Nc1ncnc(-c2cnn(Cc3ccccc3F)c2)c1-c1ccc(Cl)cc1` [Example 21, 5-(p-Chlorophenyl)-6-{1-[(o-fluorophenyl)methyl]-1H-pyrazol-4-yl}-4-pyrimidinylamine] was below 50 nM; that for `COc1ccc(-c2c(N)ncnc2-c2cnn(Cc3ccc(C(F)(F)F)cc3)c2)cc1` [Example 24, 5-(p-Methoxyphenyl)-6-(1-{[p-(trifluoromethyl)phenyl]methyl}-1H-pyrazol-4-yl)-4-pyrimidinylamine] was below 50 nM.
For `Nc1ncnc(-c2cnn(Cc3ccc(C(F)(F)F)cc3)c2)c1-c1ccc(Cl)c(Cl)c1` [Example 28, 5-(3,4-Dichlorophenyl)-6-(1-{[p-(trifluoromethyl)phenyl]methyl}-1H-pyrazol-4-yl)-4-pyrimidinylamine] the value was 500 to 10000 nM.
Take `Nc1ncnc(-c2cnn(C(CO)c3ccccc3)c2)c1-c1ccc(Cl)cc1` (racemic) [Example 5, (±)-2-{4-[6-Amino-5-(p-chlorophenyl)-4-pyrimidinyl]-1H-pyrazol-1-yl}-2-phenylethanol]: the IC50 was below 50 nM.
For `C=C(c1ccccc1)n1cc(-c2ncnc(N)c2-c2ccc(Cl)cc2)cn1` [Example 7, 5-(p-Chlorophenyl)-6-[1-(1-phenylethenyl)-1H-pyrazol-4-yl]-4-pyrimidinylamine] the value was below 50 nM; for `Nc1nccc(-c2cnn(Cc3ccc(C(F)(F)F)cc3)c2)c1-c1ccc(Cl)cc1` [Example 39, 3-(p-Chlorophenyl)-4-(1-{[p-(trifluoromethyl)phenyl]methyl}-1H-pyrazol-4-yl)-2-pyridylamine], below 50 nM; for `NC(=O)C(c1ccccc1)n1cc(-c2ncnc(N)c2-c2ccc(Cl)cc2)cn1` (racemic) [Example 8, (±)-{4-[6-Amino-5-(p-chlorophenyl)-4-pyrimidinyl]-1H-pyrazol-1-yl}phenylacetamide], below 50 nM.
For the molecule `Nc1ncnc(-c2cnn(Cc3ccccc3C(F)(F)F)c2)c1-c1ccc(Cl)cc1` [Example 17, 5-(p-Chlorophenyl)-6-(1-{[o-(trifluoromethyl)phenyl]methyl}-1H-pyrazol-4-yl)-4-pyrimidinylamine], the IC50 is 50 to 500 nM.
The value for `Nc1ncnc(-c2cnn(Cc3ccc(C(F)(F)F)cc3)c2)c1-c1ccc(F)c(F)c1` [Example 31, 5-(3,4-Difluorophenyl)-6-(1-{[p-(trifluoromethyl)phenyl]methyl}-1H-pyrazol-4-yl)-4-pyrimidinylamine] was below 50 nM.
For `CC(c1cccc(C(F)(F)F)c1)n1cc(-c2ncnc(N)c2-c2ccc(Cl)cc2)cn1` (racemic) [Example 3, (±)-5-(p-Chlorophenyl)-6-(1-{1-[m-(trifluoromethyl)phenyl]ethyl}-1H-pyrazol-4-yl)-4-pyrimidinylamine] the value was 50 to 500 nM.
